Reference: patent US20100189695A1, “IRAK-1 AS REGULATOR OF DISEASES AND DISORDERS” (priority 2008, published 2010)
No end group written: not given here.

Legend:
PGC1α = PGC1α protein after LPS, Western blot; type: cell-based; conditions: LPS vs Control
Description: The ability of IRAK-1 to regulate the transcription factor PGC1α was determined in this set of experiments. PGC1α was detected by Western blot analysis in either wild type or IRAK-1 deficient cells in the presence or absence of LPS (FIG. 15).

MCP-1 = MCP-1 message and protein after LPS in macrophages, real-time PCR and ELISA; type: cell-based; conditions: wild-type cells, LPS stimulation
Description: To investigate the possible role of IRAK-1 in control of MCP-1 expression, experiments were performed to assess the level of MCP-1 produced via LPS stimulation. It was postulated that IRAK-1 regulates the expression of MCP-1 through interaction of IRAK-1 with C/EBPδ. To assess this possible interaction, MCP-1 mRNA levels were determined in both wild-type cells and IRAK^−/− cells in the presence and absence of LPS. The results are depicted graphically in FIG. 17.
As shown in the figure, the levels of MCP-1 message (left panel) and protein (right panel) in wild type and IRAK-1 deficient macrophages following LPS stimulation was measured by real-time PCR analyses (left panel) and ELISA (right panel). […] The data fully support a role for IRAK-1 in control of expression of MCP-1 transcription through control of C/EBPδ.

RARα = RARα levels in BMDMs after LPS, Western blot and real time RT-PCR; type: cell-based, mouse; conditions: for nuclear RARα protein level: 100 ng/ml LPS
Description: To determine if IRAK-1 is involved in the nuclear translocation of RARα, the levels of RARα were determined in wild type and IRAK-1 deficient macrophages in the presence and absence of LPS (FIG. 9). […] When experiments are performed in a IRAK-1 deficient background, RARα is not suppressed (lanes 5-8). As expected, when a wild type background is used, IRAK-1 suppression can be seen (lanes 1 and 2).
WT and IRAK-1^−/−. BMDMs were treated with 100 ng/ml LPS for 2 h followed by nuclear protein extraction. The samples were analyzed by immunoblotting using the indicated antibodies. LaminB was used as the loading control. Panel B: the BMDMs derived from WT and IRAK-1^−/− mice were treated with LPS for 2 h followed by RNA extraction. The resulting cDNAs were used to detect RARα transcript levels by real time RT-PCR and standardized against GAPDH levels. Panel C: WT BMDMs were treated with 100 ng/ml LPS for 2 h followed by whole cell protein extraction. The samples were resolved by SDS-PAGE followed by immunoblotting with anti-RARα antibodies. Panel D: BMDM cells derived from WT mice were either untreated or treated with Leptomycin B (LepB) alone or in the presence of LPS. After 2 h incubation, nuclear lysates were prepared and subjected to SDS-PAGE followed by Western blot analysis with RARα specific antibodies. The blots were also probed with LaminB-specific antibodies as a loading control. ns=non-specific.

NOX-1 = NOX-1 expression after LPS in BMDM cells; type: cell-based, mouse
Description: To determine if IRAK-1 was involved in the regulation of inflammatory mediator NOX-1, the levels of NOX-1 were determined in wild type and IRAK-1 deficient macrophages in the presence and absence of LPS (FIG. 16).
Panel A: Effect of LPS on NOX-1 expression in WT and IRAK1^−/− BMDM cells. The cells were stimulated with LPS (100 ng/ml) for 2 h. After stimulation, total RNA was prepared using Trizol reagent followed by reverse transcription and the mRNA levels of NOX-1 were analyzed using real-time RT-PCR. Each data point represents the mean+/−standard deviation of at least three independent experiments. *P<0.05, compared with control. Panel B: The protein levels of NOX-1 were analyzed after LPS stimulation in WT and IRAK1^−/− BMDM cells by Western blot using an anti-NOX-1 antibody. The same blots were probed with β-actin as the loading control. Panel C: Chromatin immunoprecipitation analyses were performed to determine LPS-inducible recruitment of C/EBPδ to the promoter region of NOX-1. In contrast, LPS cannot induce C/EBPδ binding to the promoter region of NOX-1 in IRAK-1 deficient macrophages.

Rac1 = Rac1 activity by PBD pull down assay after LPS stimulation; type: cell-based, mouse; conditions: LPS 100 ng/ml, 5 min
Description: (§1) To determine if IRAK-1 is required for LPS-induced activation of Rac1, either wild type or IRAK-1 deficient macrophages were treated with LPS (100 ng/ml).
Rac1 activity was determined using the PBD pull down assay following LPS stimulation (100 ng/ml) for 5 min in WT and IRAK1^−/− BMDM cells followed by immunoblotting with an anti-Rac1 antibody. […] The bar graphs are densitometric analyses of the active Rac1 specific bands from three independent experiments.

BMDM cells = assay: Intracellular ROS by DCFDA staining after LPS stimulation; type: cell-based, mouse; conditions: wild type macrophages, LPS 100 ng/ml, 15 minutes or 16 hours
Description: as §1
Intracellular ROS levels were measured by DCFDA staining using fluorescence microscope after LPS (100 ng/ml) stimulation in WT and IRAK1^−/− BMDM cells for 15 min.

LXRα = LXRα protein after LPS, Western blot; type: cell-based
Description: The transcriptional factor LXRα was also thought to be a potential target of IRAK-1 suppression. FIG. 14 illustrates Western blot analysis of the LXRα protein in the presence and absence of IRAK-1. Suppression of LXRα can be seen in the wild type cells (lanes 1 and 2).

PPARα = PPARα protein after LPS, Western blot; type: cell-based; conditions: IRAK-1 deficient cells, LPS vs Control
Description: It was of interest to determine if the transcription factor PPARα is also regulated by IRAK-1.

C/EBPδ = assay: LPS-induced C/EBPδ expression, Western blot in macrophages; type: cell-based; conditions: LPS two hours
Description: To determine if IRAK-1 is involved in LPS-induced C/EBPδ expression, either wild type or IRAK-1 deficient macrophages were treated with LPS for two hours. […] Either β-actin or lamin-B proteins were used as controls.

Tau = Tau phosphorylation (PHF-Tau) after BLP (Pam3CSK4) in bone marrow derived macrophages, Western blot; type: cell-based, mouse
Description: Because Tau phosphorylation is increased in aged human brains and contributes to the pathogenesis of various neurological diseases, such as Alzheimer's and Parkinson's diseases, studies were performed to ask whether the increased levels of full-length IRAK-1 can contribute to Tau phosphorylation. In order to answer this question, a transgenic mouse model known in the art was used. According to this study, either wild type or IRAK-1 deficient bone marrow derived macrophages were treated with BLP (Pam3CSK4) for various times, as indicated in FIGS. 4 and 5. The levels of phosphorylated Tau (PHF-Tau) were detected through Western Blot using anti-phosphorylated Tau antibody.

ABCA1 = ABCA1 induction by ATRA in BMDMs, real time RT-PCR; type: cell-based, mouse; conditions: IRAK1−/− vs WT BMDMs, 50 nM ATRA, 6 h
Description: WT and IRAK1^−/− BMDM cells were either untreated or treated with ATRA (50 nM) followed by Western blot analysis of cell extracts using ABCA1 specific antibodies. Antibodies against β-actin were used as the internal loading control. Panel B: the band intensities were quantitated using the Fujifilm Multi Gauge software and the fold induction is depicted after normalization against β-actin levels. Panel C: IRAK-1 expression was knocked-down using IRAK-1 specific siRNA (IRAK1). Wild type macrophages treated with either control siRNA or IRAK-1 specific siRNA were stimulated with 50 nM ATRA for 6 hrs. The levels of ABCA1 protein were determined by Western blot using anti-ABCA1 antibody. The levels of beta-actin were probed and served as equal loading controls. The levels of IRAK-1 were probed to make efficient knock-down with the IRAK-1 specific siRNA treatment. […] The cells were […] either untreated or treated with 50 nM ATRA for 6 h and the expression of ABCA1 and ABCG1 transcripts were measured by real time RT-PCR assays and standardized against GAPDH levels.

## lipopolysaccharide [LPS]
PGC1α; IRAK-1 deficient cells
  PGC1α protein: did not show the LPS-induced suppression
PGC1α; wild type cells
  PGC1α protein: much less of the PGC1α protein
MCP-1
  MCP-1 transcription and protein expression: significant increase in induction of MCP-1 transcription and protein expression
RARα; IRAK-1 deficient BMDMs, 2 h
  nuclear RARα protein level: no significant suppression
RARα; wild type BMDMs, 2 h
  nuclear RARα protein level: suppression of RARα protein
RARα; wild type and IRAK-1 deficient BMDMs, LPS 2 h, standardized against GAPDH
  RARα relative transcript levels: approximately equal
NOX-1; IRAK-1 deficient cells
  NOX-1 protein: Induction was seen to a lesser extent
NOX-1; wild type macrophage cells
  NOX-1 protein: LPS-induction of NOX-1
Rac1; IRAK-1 deficient macrophages
  activation of Rac1: No induction was seen
Rac1; wild type macrophages
  relative Rac1 activity: significantly higher
BMDM cells
  reactive oxygen species levels: induced significantly higher levels of reactive oxygen species
LXRα; IRAK-1 deficient cells
  amount of LXRα in the presence or absence of LPS: approximately the same
LXRα; wild type cells
  amount of LXRα without LPS induction relative to LPS-induced cells: four times
PPARα
  PPARα protein: PPARα was seen in both the Control and LPS samples
C/EBPδ; IRAK-1 deficient macrophages
  C/EBPδ expression: no induction
C/EBPδ; wild type macrophages
  C/EBPδ expression: induction

## Triacylated Cys-Ser-Lys-Lys-Lys-Lys (CSKKKK; not fully specified (residue 1, N-terminus); printed as Triacylated Cys-Ser-Lys-Lys-Lys-Lys) [Pam3CSK4]
Tau; IRAK-1 deficient bone marrow derived macrophages
  Tau phosphorylation: Tau phosphorylation is ablated
Tau; wild type bone marrow derived macrophages
  Tau phosphorylation: led to increased Tau phosphorylation

## CCC(=C/[C@H](C)C/C=C/C(C)=C/[C@@H](C)C(=O)[C@@H](C)[C@H](O)[C@@H](C)C/C(C)=C/C(=O)O)/C=C/[C@@H]1OC(=O)C=C[C@@H]1C [LepB, Leptomycin B]
RARα; wild type BMDM, LepB with LPS, 2 h
  LPS-induced suppression of nuclear RARα in the presence of LepB: RARα suppression by IRAK-1 is not seen

## CC1=C(/C=C/C(C)=C/C=C/C(C)=C/C(=O)O)C(C)(C)CCC1 [ATRA, all trans retinoic acid]
ABCA1
  ABCA1 mRNA induction: higher induction of ABCA1 mRNA
